Source: patent US10202658B2, “Methods for determining hypersusceptibility of HIV-1 to non-nucleoside reverse transcriptase inhibitors” (Monogram Biosciences, Inc., priority 2005, dated 2019)

Tests used:
Format in all cases: cell-based
[1] = test system: HIV-1, RT mutations: 3 NAMs; test: PhenoSense resistance test vector assay, clinical isolates with 3 NAMs; conditions: share of samples designated hypersusceptible
Method: (§1) In preferred embodiments, the phenotypic analysis of NNRTI hypersusceptibility is performed using PHENOSENSE™ (ViroLogic Inc., South San Francisco, Calif.). See Petropoulos et al., 2000, Antimicrob. Agents Chemother. 44:920-928; U.S. Pat. Nos. 5,837,464 and 6,242,187. PHENOSENSE™ is a phenotypic assay that achieves the benefits of phenotypic testing and overcomes the drawbacks of previous assays. Because the assay has been automated, PHENOSENSE™ provides high throughput methods under controlled conditions for determining NNRTI resistance, susceptibility, or hypersusceptibility of a large number of individual viral isolates.
(§2) The assay can be performed by first co-transfecting host cells with RTV DNA and a plasmid that expresses the envelope proteins of another retrovirus, for example, amphotropic murine leukemia virus (MLV). Following transfection, viral particles can be harvested from the cell culture and used to infect fresh target cells in the presence of varying amounts of anti-viral drug(s). The completion of a single round of viral replication in the fresh target cells can be detected by the means for detecting replication contained in the vector. In a preferred embodiment, the completion of a single round of viral replication results in the production of luciferase. By monitoring the amount of, e.g., luciferase activity in the presence of the varying amounts of antiviral drug(s), a resistance curve can be constructed by plotting luciferase activity versus drug concentration. The susceptibility of an HIV, or population of HIV, can be determined by measuring the concentration of antiviral drug at which the luciferase activity detected is half-maximal. This number, the IC50, provides a standard and convenient measure of drug resistance.
(§3) Patient-derived segment(s) corresponding to the HIV protease and reverse transcriptase coding regions were amplified by the reverse transcription-polymerase chain reaction method (RT-PCR) using viral RNA isolated from viral particles present in the plasma or serum of HIV-infected individuals as follows. […]

[2] = test system: HIV-1, RT mutations: 65R; test: PhenoSense resistance test vector assay, clinical isolates with 65R; conditions: share of samples designated hypersusceptible
Method: as §1
(§4) The assay can be performed by first co-transfecting host cells with RTV DNA and a plasmid that expresses the envelope proteins of another retrovirus, for example, amphotropic murine leukemia virus (MLV). Following transfection, viral particles can be harvested from the cell culture and used to infect fresh target cells in the presence of varying amounts of anti-viral drug(s). The completion of a single round of viral replication in the fresh target cells can be detected by the means for detecting replication contained in the vector. […] The susceptibility of an HIV, or population of HIV, can be determined by measuring the concentration of antiviral drug at which the luciferase activity detected is half-maximal. […]

[3] = test system: HIV-1, RT mutations: 184V; test: PhenoSense resistance test vector assay, clinical isolates with 184V; conditions: share of samples designated hypersusceptible
Method: as §1, §2, §3

[4] = test system: HIV-1, RT mutations: 65R and 184V; test: PhenoSense resistance test vector assay, clinical isolates with 65R and 184V; conditions: share of samples designated hypersusceptible
Method: as §1, §4

[5] = test system: HIV-1, RT mutations: T215Y and 2 TAMs; test: PhenoSense resistance test vector assay, clinical isolates with T215Y and 2 TAMs; conditions: share of samples designated hypersusceptible
Method: as §1, §4

[6] = test system: HIV-1, RT mutations: T215Y and 2 TAMs and H208X; test: PhenoSense resistance test vector assay, clinical isolates with T215Y and 2 TAMs and H208X; conditions: share of samples designated hypersusceptible
Method: as §1, §2, §3

[7] = test system: HIV-1, RT mutations: T215Y and 2 TAMs and H208 wt; test: PhenoSense resistance test vector assay, clinical isolates with T215Y and 2 TAMs and H208 wt; conditions: share of samples designated hypersusceptible
Method: as §1, §2, §3

[8] = test system: HIV-1 NL4-3 SDM, L74V in reverse transcriptase; test: NNRTI susceptibility of site-directed mutant (SDM) containing L74V in NL4-3 background; conditions: relative to NL4-3
Method: as §1
as §4, with “vector. In a preferred embodiment, the completion of a single round of viral replication results in the production of luciferase.” for “vector.”
Resistance tests were carried out with resistance test vectors using two host cell types. […] The resistance test vector viral particles were then used to infect a second host cell (the target host cell) in which the expression of the indicator gene is measured.
The amount of luciferase activity detected in infected cells is used as a direct measure of “infectivity,” i.e., the ability of the virus to complete a single round of replication. Thus, drug resistance or sensitivity can be determined by plotting the amount of luciferase activity produced by patient derived viruses in the presence of varying concentrations of the antiviral drug. […]

Structure (SMILES)	% IC50 0.4 fold < WT [1]	% IC50 0.4 fold < WT [2]	% IC50 0.4 fold < WT [3]	% IC50 0.4 fold < WT [4]	% IC50 0.4 fold < WT [5]	% IC50 0.4 fold < WT [6]	% IC50 0.4 fold < WT [7]	FC (fold change in IC50) [8]
CC(C)Nc1cccnc1N1CCN(C(=O)c2cc3cc(NS(C)(=O)=O)ccc3[nH]2)CC1 [DLV, delavirdine]	12.8%	44.4%	12.3%	42.7%	71.8%	90.9%	68.7%	0.68+/−0.06
O=C1Nc2ccc(Cl)cc2[C@@](C#CC2CC2)(C(F)(F)F)O1 [EFV, efavirenz]	28.2%		16.9%			54.5%	55.1%	0.67+/−0.02
Cc1ccnc2c1NC(=O)c1cccnc1N2C1CC1 [NVP, nevirapine]	17.9%	55.6%	16.3%	50.7%	31.3%	9.1%	34.8%	0.59+/−0.06
